Measurements published in PubChem BioAssay AID330 (DTP/NCI, 2004).
Where “and” joins values, the source holds several entries; their conditions need not be identical. Identical values can stand only once. Inconclusive results and toxic doses are left out.

Test system: P388 leukemia ip, CD2F1 mice, survival T/C
Experiment: NCI In Vivo Anticancer Drug Screen. Data for tumor model P388 Leukemia (intraperitoneal) in CD2F1 (CDF1) mice
Conditions: endpoint: median survival time, higher = longer survival
In short: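 Mice carrying the transplanted tumor received test compound or vehicle. Survival was recorded in each group, and the value is the treated-group measurement divided by that of the vehicle-treated control group.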

[1] = dose: 50.0 mg/kg/injection, schedule: Q01DX005 (ip), vehicle: saline with Tween-80
[2] = dose: 100.0 mg/kg/injection, schedule: Q01DX001 (ip), vehicle: saline with Tween-80
[3] = dose: 200.0 mg/kg/injection, schedule: Q01DX001 (ip), vehicle: saline with Tween-80
[4] = dose: 50.0 mg/kg/injection, schedule: Q01DX005 (ip), vehicle: Klucel (hydroxypropylcellulose) (HPC)
[5] = dose: 60.0 mg/kg/injection, schedule: Q01DX005 (ip), vehicle: saline with Tween-80
[6] = dose: 50.0 mg/kg/injection, schedule: Q01DX009 (ip), vehicle: saline with Tween-80
[7] = dose: 100.0 mg/kg/injection, schedule: Q01DX009 (ip), vehicle: saline with Tween-80
[8] = dose: 200.0 mg/kg/injection, schedule: Q01DX009 (ip), vehicle: saline with Tween-80
[9] = dose: 25.0 mg/kg/injection, schedule: Q01DX009 (ip), vehicle: saline with Tween-80
[10] = dose: 6.25 mg/kg/injection, schedule: Q01DX009 (ip), vehicle: distilled water + Tween-80
[11] = dose: 12.5 mg/kg/injection, schedule: Q01DX009 (ip), vehicle: distilled water + Tween-80
[12] = dose: 25.0 mg/kg/injection, schedule: Q01DX009 (ip), vehicle: distilled water + Tween-80
[13] = dose: 100.0 mg/kg/injection, schedule: Q01DX009 (ip), vehicle: distilled water + Tween-80
[14] = dose: 60.0 mg/kg/injection, schedule: Q01DX005 (ip), vehicle: Klucel (hydroxypropylcellulose) (HPC)
[15] = dose: 120.0 mg/kg/injection, schedule: Q01DX005 (ip), vehicle: Klucel (hydroxypropylcellulose) (HPC)
[16] = dose: 12.5 mg/kg/injection, schedule: Q01DX009 (ip), vehicle: saline
[17] = dose: 25.0 mg/kg/injection, schedule: Q01DX009 (ip), vehicle: saline
[18] = dose: 50.0 mg/kg/injection, schedule: Q01DX009 (ip), vehicle: saline
[19] = dose: 120.0 mg/kg/injection, schedule: Q01DX005 (ip), vehicle: saline with Tween-80

In the case of `CCOC(=O)NN(C(=O)OCC)C(C)(C)C(C)=O`, the T/C (dose: 100.0 mg/kg/injection, schedule: Q01DX001 (ip), vehicle: saline) is reported as 100 % of control, the T/C (dose: 200.0 mg/kg/injection, schedule: Q01DX001 (ip), vehicle: saline) is reported as 100 % of control and 106 % of control and the T/C (dose: 400.0 mg/kg/injection, schedule: Q01DX001 (ip), vehicle: saline) is reported as 100 % of control and 108 % of control.

In the case of `CCCCN(CCCC)CN(CCCC)CCCC`, the T/C (dose: 12.5 mg/kg/injection, schedule: Q01DX005 (ip), vehicle: saline with Tween-80) is reported as 102 % of control, the T/C (dose: 25.0 mg/kg/injection, schedule: Q01DX005 (ip), vehicle: saline with Tween-80) is reported as 112 % of control and the T/C [1] is reported as 104 % of control and 114 % of control.

In the case of `Cc1nc(CC#N)c(C(N)=O)c(Nc2ccccc2)n1`, the T/C [2] is reported as 92 % of control, the T/C [3] is reported as 92 % of control and the T/C (dose: 400.0 mg/kg/injection, schedule: Q01DX001 (ip), vehicle: saline with Tween-80) is reported as 111 % of control.

`Cc1nc(N)c2[nH]cnc2n1` was tested, and the T/C [4] was 99 % of control, the T/C (dose: 100.0 mg/kg/injection, schedule: Q01DX005 (ip), vehicle: Klucel (hydroxypropylcellulose) (HPC)) was 100 % of control and the T/C (dose: 200.0 mg/kg/injection, schedule: Q01DX005 (ip), vehicle: Klucel (hydroxypropylcellulose) (HPC)) was 99 % of control.

`Fc1ccc2[nH]c3ncccc3c2c1` was tested, and the T/C [1] was 106 % of control, the T/C (dose: 100.0 mg/kg/injection, schedule: Q01DX005 (ip), vehicle: saline with Tween-80) was 105 % of control and the T/C (dose: 200.0 mg/kg/injection, schedule: Q01DX005 (ip), vehicle: saline with Tween-80) was 100 % of control.

In the case of `ClC(Cl)(Cl)C(=NNc1ccccc1)C(Cl)(Cl)Cl`, the T/C (dose: 15.0 mg/kg/injection, schedule: Q01DX005 (ip), vehicle: saline with Tween-80) is reported as 104 % of control, the T/C (dose: 30.0 mg/kg/injection, schedule: Q01DX005 (ip), vehicle: saline with Tween-80) is reported as 104 % of control and the T/C [5] is reported as 105 % of control and 110 % of control.

With `Cc1nc(O)c(-c2ccccc2)s1` the T/C [6] was 104 % of control, the T/C [7] was 105 % of control and the T/C [8] was 92 % of control.

With `COc1cc2c(=O)n(C)c3ccccc3c2cc1OC` the T/C (dose: 25.0 mg/kg/injection, schedule: Q01DX009 (ip), vehicle: other) was 91 % of control, the T/C (dose: 50.0 mg/kg/injection, schedule: Q01DX009 (ip), vehicle: other) was 90 % of control and the T/C (dose: 100.0 mg/kg/injection, schedule: Q01DX009 (ip), vehicle: other) was 91 % of control. The T/C (dose: 200.0 mg/kg/injection, schedule: Q01DX009 (ip), vehicle: other) was 93 % of control and the T/C (dose: 400.0 mg/kg/injection, schedule: Q01DX009 (ip), vehicle: other) was 99 % of control.

In the case of `CCN(CC)CCN1C(=O)c2cccc3cc(N)cc(c23)C1=O`, the T/C (dose: 1.56 mg/kg/injection, schedule: Q01DX009 (ip), vehicle: saline with Tween-80) is reported as 101 % of control, the T/C (dose: 1.6 mg/kg/injection, schedule: Q01DX009 (ip), vehicle: saline with Tween-80) is reported as 100 % of control and the T/C (dose: 3.12 mg/kg/injection, schedule: Q01DX009 (ip), vehicle: saline with Tween-80) is reported as 98 % of control. For the same compound, the T/C (dose: 3.2 mg/kg/injection, schedule: Q01DX009 (ip), vehicle: saline with Tween-80) was 108 % of control, the T/C (dose: 6.25 mg/kg/injection, schedule: Q01DX009 (ip), vehicle: saline with Tween-80) was 98 % of control and the T/C (dose: 6.5 mg/kg/injection, schedule: Q01DX009 (ip), vehicle: saline with Tween-80) was 107 % of control and 123 % of control. For the same compound, the T/C (dose: 12.5 mg/kg/injection, schedule: Q01DX009 (ip), vehicle: saline with Tween-80) was 107 % of control, the T/C (dose: 13.1 mg/kg/injection, schedule: Q01DX009 (ip), vehicle: saline with Tween-80) was 121 % of control and 123 % of control and the T/C [9] was 114 % of control. The T/C (dose: 26.0 mg/kg/injection, schedule: Q01DX009 (ip), vehicle: saline with Tween-80) was 124 % of control and the T/C [6] was 160 % of control.

In the case of `CNC(=O)/C=C/C1=CN2C(=O)c3ccc(C)c(O)c3NC(OC)C2C1` (configuration not stated), the T/C (dose: 0.01 mg/kg/injection, schedule: Q01DX009 (ip), vehicle: suspension in saline) is reported as 102 % of control and 115 % of control, the T/C (dose: 0.02 mg/kg/injection, schedule: Q01DX009 (ip), vehicle: suspension in saline) is reported as 116 % of control and the T/C (dose: 0.05 mg/kg/injection, schedule: Q01DX009 (ip), vehicle: saline) is reported as 121 % of control. For the same compound, the T/C (dose: 0.05 mg/kg/injection, schedule: Q01DX009 (ip), vehicle: suspension in saline) was 120 % of control, the T/C (dose: 0.2 mg/kg/injection, schedule: Q01DX009 (ip), vehicle: saline) was 92 % of control and the T/C (dose: 0.2 mg/kg/injection, schedule: Q01DX009 (ip), vehicle: suspension in saline) was 97 % of control.

For `Nn1c(=S)[nH]nc(/C=C/c2ccc3c(c2)OCO3)c1=O`, the T/C [6] was 89 % of control, the T/C [7] was 91 % of control and the T/C [8] was 98 % of control.

For `CNC(=O)OCc1nn(-c2ccc(Cl)cc2)c(C)c1COC(=O)NC`, the T/C (dose: 1.56 mg/kg/injection, schedule: Q01DX009 (ip), vehicle: distilled water + Tween-80) was 103 % of control, the T/C (dose: 3.12 mg/kg/injection, schedule: Q01DX009 (ip), vehicle: distilled water + Tween-80) was 100 % of control and the T/C [10] was 97 % of control. The T/C [11] was 101 % of control and 89 % of control and 95 % of control, the T/C [12] was 93 % of control and the T/C [13] was 101 % of control and 93 % of control. For the same compound, the T/C (dose: 200.0 mg/kg/injection, schedule: Q01DX009 (ip), vehicle: distilled water + Tween-80) was 102 % of control and 108 % of control.

`COc1ccc(C2c3cc4c(cc3OC3(N5CCCC5)CCCC23)OCO4)c(OC)c1` (configuration not stated) was tested, and the T/C [14] was 99 % of control, the T/C [15] was 95 % of control and the T/C (dose: 240.0 mg/kg/injection, schedule: Q01DX005 (ip), vehicle: Klucel (hydroxypropylcellulose) (HPC)) was 96 % of control.

With `CN=C(NC(C)C)c1ccccc1` the T/C [16] was 91 % of control, the T/C [17] was 88 % of control and the T/C [18] was 104 % of control and 88 % of control.

In the case of `Nc1nc(N)c2c(ccc3nc(-c4ccccc4)c(-c4ccccc4)nc32)n1`, the T/C [2] is reported as 87 % of control and the T/C [3] is reported as 90 % of control.

For `[N-]=[N+]=Nc1c2c(nc3ccccc13)CCCC2`, the T/C [5] was 103 % of control and the T/C [19] was 105 % of control.

For `CCCCCNC(=O)OCc1c(COC(=O)NCCCCC)c(-c2ccc(Cl)c(Cl)c2)n2c1CCC2`, the T/C [10] was 113 % of control, the T/C [11] was 101 % of control and 110 % of control and the T/C [12] was 108 % of control and 116 % of control. The T/C [13] was 165 % of control.

For `N#CC1CCCC(C#N)N1Cc1ccccc1` (configuration not stated), the T/C [14] was 110 % of control and the T/C [15] was 106 % of control.

With `CCC1(C)c2cc(C)c(C(C)=O)cc2C(C)(C)C1C` (configuration not stated) the T/C [9] was 100 % of control, the T/C [6] was 101 % of control and the T/C [7] was 100 % of control.

`c1cc(-c2nc3ccc(-c4nc5ccc(C6=NCCN6)cc5[nH]4)cc3[nH]2)ccc1C1=NCCN1` was tested, and the T/C (dose: 6.25 mg/kg/injection, schedule: Q01DX005 (ip), vehicle: Klucel (hydroxypropylcellulose) (HPC)) was 100 % of control, the T/C (dose: 12.5 mg/kg/injection, schedule: Q01DX005 (ip), vehicle: Klucel (hydroxypropylcellulose) (HPC)) was 98 % of control and the T/C [4] was 88 % of control.

For `C=C1C(=O)C[C@H]2[C@H]3CC[C@H](C(=O)O)[C@]12CC3(C)C`, the T/C (dose: 7.5 mg/kg/injection, schedule: Q01DX005 (ip), vehicle: Klucel (hydroxypropylcellulose) (HPC)) was 119 % of control, the T/C (dose: 15.0 mg/kg/injection, schedule: Q01DX005 (ip), vehicle: Klucel (hydroxypropylcellulose) (HPC)) was 113 % of control and the T/C (dose: 30.0 mg/kg/injection, schedule: Q01DX005 (ip), vehicle: Klucel (hydroxypropylcellulose) (HPC)) was 119 % of control. The T/C (dose: 31.5 mg/kg/injection, schedule: Q01DX005 (ip), vehicle: Klucel (hydroxypropylcellulose) (HPC)) was 111 % of control.

In the case of `Clc1ccc2ccc3ccccc3c2n1`, the T/C [16] is reported as 101 % of control, the T/C [17] is reported as 102 % of control and the T/C [18] is reported as 101 % of control and 94 % of control.

In the case of `O=C(O)C(=O)O.[Co].[NH-]CC[NH-].[NH-]CC[NH-]`, the T/C (dose: 12.5 mg/kg/injection, schedule: Q04DX002 (ip), vehicle: saline with Tween-80) is reported as 100 % of control and the T/C (dose: 25.0 mg/kg/injection, schedule: Q04DX002 (ip), vehicle: saline with Tween-80) is reported as 100 % of control.

With `O=C(O)C1C2C=CC(C2)C1c1c2ccc(=O)c(O)c-2oc2c(O)c(O)ccc12` (configuration not stated) the T/C [5] was 102 % of control, the T/C [19] was 101 % of control and the T/C (dose: 240.0 mg/kg/injection, schedule: Q01DX005 (ip), vehicle: saline with Tween-80) was 111 % of control.
